According to patent publication US8133903B2, “Methods of use of inhibitors of phosphodiesterases and modulators of nitric oxide, reactive oxygen species, and metalloproteinases in the treatment of peyronie's disease, arteriosclerosis and other fibrotic diseases” (Los Angeles Biomedical Research Institute at Harbor—UCLA …, priority 2003, dated 2012):

Legend:
Type in all cases: in vivo
[1] = test system: SMC in the media of the penile resistance arteries; experiment: Aged rat arterial tree model, TUNEL apoptosis in the media of the penile arteries; settings: aged rats, L-NIL treatment
Description: (§1) Arterial Tree Rodent Model. Young (3-month) and aged (22-24 month) male Brown Norway rats were obtained from the NIH/NIA colony (Harlan Sprague-Dawley, Inc., San Diego, Calif.), and maintained under controlled temperature and lighting. One half of the aged animals were treated for 3 weeks with L-NIL at 0.1 g/l in the drinking water, while the rest of the animals received plain drinking water. Animals were anesthetized, pretreated with heparin, and perfused through the left ventricle with saline followed by 4% formalin. The abdominal aorta, brachial and femoral neurovascular bundles as well as the penis, denuded of its skin, were removed and post-fixed overnight in 4% formalin, and washed and stored in PBS at 4 C until paraffin embedding.
(§2) For iNOS, nitroyrosine, heme-oxygenase, PAI-1, MnSOD and Cu/Zn SOD determination, at least 6 sections per specimen were analyzed. Each slide assayed had its corresponding negative control. In certain cases, the number of immuno-positive cells was determined as a percentage of the total counterstained nuclei in a computerized grid. In the Masson staining, the ratio between SMC (red) and collagen fibers (blue) was obtained and expressed per area.

collagen I promoter = experiment: Collagen I promoter reporter plasmid (β-galactosidase, luminometry) injected into the rat PD-like plaque; settings: L-NIL treated TGF-β1 rat, vs control TA
Source text: The effect of L-NIL in increasing collagen in the TA of the TGF-β1 rat model may be due to an increase in collagen synthesis, a decrease in its normal breakdown, or both. To determine whether the larger PD plaque in the L-NIL treated rat is due, at least in part, to an increase in collagen I synthesis (the most prevalent collagen protein in the TA), and not simply to the inhibition of collagenolysis by the MMPs, we injected a cDNA plasmid construct of the collagen I promoter driving the expression of a reporter gene (Magee et al., 2002a) into the site of the original TGF-β1 or saline injection, 10 days prior to sacrifice and 35 days after the TGF-β1 injection. This plasmid is an indicator of collagen I transcriptional activity within the rat PD plaque.

[2] = test system: TGF-β1-induced fibrotic plaque in the rat tunica albuginea; experiment: TGF-β1 rat model of Peyronie's disease, plaque and collagen deposition by Masson staining with QIA; settings: long-term oral L-NIL, TGF-β1 injected rat
Description: TGF-β1 rat model. Male Fisher 344 rats, 9-11 month old purchased from the NIH/NIA colony (Harlan Sprague-Dawley, Inc., San Diego, Calif.) and maintained under controlled temperature and lighting, were anesthetized and injected in the penile TA at the middle of the penis with either vehicle only (saline, group 1) or 0.5 μg recombinant human TGF-β1 (Biotech Diagnostic, Laguna Niguel, Calif., groups 2-5) as disclosed (Ferrini et al., 2002; Vernet et al., 2002). After the injection, groups 1 and 2 were given drinking water while the other groups received water with L-arginine (2.25 g/kg/day, group 3) (Moody et al., 1997), or sildenafil (10 mg/kg/day, group 4) or pentoxifylline (10 mg/kg/day, group 5). Forty-five days later, or as indicated, animals were sacrificed and perfused through the left ventricle with saline followed by 4% formalin ((Ferrini et al., 2002; Vernet et al., 2002). After the penises were excised, the penile skin was denuded by removing the glans and adhering non-crural tissue. The penile shaft was separated from the crura and 2-3 mm transverse slices were cut around the site of the saline or TGF-β1 injection. All tissues were post-fixed overnight in 4% formalin, washed in PBS and stored at 4° C.
In the case of tissue sections, the determinations of the collagen/smooth muscle ratio were carried out with Masson trichrome (Ferrini et al., 2002; Davila et al., 2003b) on adjacent 5 μm paraffin-embedded cross-sections from the human normal tunical or plaque tissues, or from a 2 mm area around the site of injection in the rat saline- and TGF-β1-injected shaft tissues. Other distal sections were obtained along the rat penile shaft.
The quantitation of the staining obtained by either histochemical or immunohisto/cytochemical techniques was performed by computerized densitometry using the ImagePro 4.01 program (Media Cybernetics, Silver Spring, Md.), coupled to an Olympus BHS microscope equipped with a Spot RT digital camera or VCC video camera (Wang et al., 2001; Ferrini et al., 2001a, 2001b; Davila et al., 2003b).

[3] = test system: TGF-β1-induced fibrotic plaque in the rat tunica albuginea; experiment: Nitrotyrosine and ROS marker (heme-oxygenase I) detection in the TA of the TGF-β1 rat model
Description: (§3) The determinations of iNOS, nitrotyrosine, heme-oxygenase I, PAI-I (Davila et al., 2003b), manganese superoxide dismutase (MnSOD), and CuZn SOD (Cu/Zn SOD) (Martin et al., 1994) were carried out on 5 μm paraffin-embedded adjacent tissue sections, that. were quenched for endogenous peroxidase activity after deparaffinization and rehydration. Sections were blocked with normal goat serum, and incubated with polyclonal IgG antibodies against mouse iNOS (1:500) (Transduction Laboratories, Lexington, KT), nitrotyrosine (1:100) (Upstate, Lake Placid, N.Y.), Mn SOD and Cu/Zn SOD (Oxygen, Portland, Oreg.) (1:800 and 1:500 respectively), heme oxygenase I (Stressgen, San Diego, Calif.), or PAI-1 (Abcam Ltd, Cambridge, UK). For negative controls the first antibodies were replaced by IgG isotype. The detection was based on a secondary anti-rabbit biotinylated antibody (1:200) for iNOS and nytrotyrosine (Calbiochem, La Jolla, Calif.), or anti-sheep biotinylated antibody (1:200) for Cu/Zn and Mn SOD, followed by the ABC complex (1:100) (Calbiochem) and 3,3′ diaminobenzidine (spelling) (DAB) (Sigma, St Louis Mo.). Sections were counterstained with hematoxylin.
The studies with L-arginine detailed in Example 1 show modulation of the size of the PD plaque by NO. […]

[4] = test system: arterial media of aged Brown Norway rats; experiment: Aged rat arterial tree model, Masson staining (SMC/collagen), intima/media thickness and lumen diameter; settings: for intima media thickness / lumen diameter: OLD + L-NIL
Description: as §1
SMC and collagen fibers within the corporal tissue and vascular tree were estimated by Masson trichromic staining (Sigma Diagnostic, St. Louis, Mo.) (Ferrini et al., 2002; Vernet et al., 2002; Davila et al, […]) in sections adjacent to those used for immunohistochemical staining, followed by image analysis to measure the ratio between SMC (red) and collagen fibers (blue). The results were expressed as red/blue ratios per area (see below). In the arterial tree, the intima/media thickness (IMT), and the diameter of the lumen were also measured.
as §2

[5] = test system: arterial media of aged Brown Norway rats; experiment: Aged rat arterial tree model, immunohistochemistry for iNOS, nitrotyrosine, Cu/Zn SOD, heme oxygenase I, PAI
Description: as §1, §3, §2

For CC(=N)NCCCC[C@H](N)C(=O)O [L-NIL, L-iminoethyl-L-lysine], the “apoptotic index, dorsal and bulbourethral penile arteries” value [1] was “reduction”, the “expression of the reporter β-galactosidase driven by the collagen I promoter (luminometry in tissue extracts)” value (collagen I promoter) was “considerably intensified” and the “expansion and thickening of the TA due to collagen fiber deposition” value [2] was “remarkable expansion and thickening of the TA”. The ROS levels ([3]; iNOS activity blocked with L-NIL in the TGF-β1 rat model) was “considerable elevation”, the “peroxynitrite as indicated by nitrotyrosine formation in the TA” value ([3]; long-term oral L-NIL, TGF-β1 injected rat) was “considerable increase” and the “collagen fibers within the media of the aorta and the dorsal penile artery” value ([4]; aged rats, L-NIL for 3 weeks) was “further increase in the collagen fibers”. The “amount of collagen within the media (SMC/collagen ratio, image analysis)” value ([4]; aged rats, L-NIL, aorta, femoral, dorsal, with the exception of the bulbourethral artery) was “further exacerbation in the amount of collagen”, the intima media thickness ([4]; aorta) was 85.2 ± 6.6 μm and the intima media thickness ([4]; bulbo urethral) was 9.9 ± 0.7 μm. For the same molecule, the lumen diameter ([4]; bulbo urethral) was 47.3 ± 6.6 μm, the intima media thickness ([4]; femoral) was 51.8 ± 4.6 μm and the intima media thickness ([4]; penile dorsal) was 23.6 ± 3.3 μm. For the same molecule, the lumen diameter ([4]; penile dorsal) was 105.5 ± 16. μm, the “effect on PAI expression in the aged media (quantitative image analysis)” value ([5]; L-NIL) was “negligible” and the “expression of heme oxygenase I in the penile dorsal artery” value ([5]; L-NIL) was “did not induce a further significant change”. For the same molecule, the “iNOS expression in the arterial media” value ([5]; L-NIL) was “reduction in iNOS expression”, the “peroxynitrite formation (nitrotyrosine) in the arterial media” value ([5]; L-NIL) was “reduction in peroxynitrite formation” and the “increase of Cu/Zn SOD (indirect marker of ROS), image analysis” value ([5]; L-NIL blockade of iNOS activity) was 40 to 50%.
